Data from patent publication US20040242870A1, “Antiviral methods and compounds” (priority 2000, published 2004).

Key:
[1] = test system: PBMCs; experiment: Cell cycle analysis of PBMCs by flow cytometry; format: cell-based, Human
Experimental: Flow cytometry studies were carried out on PHA/IL-2 induced PBMCs treated for 6 days with the various test compounds. Prior to flow cytometry the PBMCs were washed, counted and 1×10^6 cells resuspended in PBS and stained for CD4 or CD8 surface markers using anti-CD4.PE or CD8.PE (both from PharMingen) for 30 min at 4° C. The PBMC were then washed, fixed (Cytofix) and permeabilized (Cytoperm) followed by staining for apoptosis-related DNA damage. Initial experiments used the BrdU Flow Kit from PharMigen (2354KK). This kit with the appropriate software should have yielded percent apoptosis along with the number of cells in each phase of the cell cycle. However, we were not successful with this kit and subsequently used the data to look at only the distribution in the cell cycle of the PBMCs following drug treatment. We were successful in detecting apoptosis in PBMCs with the PharMingen APO-BRDU™ kit (6576KK). Using this kit, we were not able to co-stain for CD4 and CD8 due to the fluorescent tags used in the APO-BRDU™ kit. For both kits, manufacturers instructions were followed for staining and analysis of the samples. Following the appropriate staining protocol the cells were analyzed using a Becton Dickinson (Bedford, Mass.) FACSSort
(§1) Experiments were conducted using flow cytometry to assess the effect of the IMG compounds and cannabidiol on induction of apoptosis. Briefly, compound-treated PBMCs were assayed for apoptosis using a BrdU methodology. Table 6 summarizes the effects of the IMG Compounds on cell cycle and cell viability by Trypan Blue Dye exclusion. Table 7 reduces the changes in the cell cycle to a ratio based upon the percent of cells in G2-G1. G2-G1 cells represent transition cells that are in either G2 or G1, that cannot be distinguished based upon DNA content by flow cytometry. […] This ratio cannot be used as a quantitative factor to measure fold-increases or decreases between population, but rather to access trends in the cell cycle.

[2] = test system: PBMCs; experiment: PBMC viability by Trypan Blue dye exclusion; format: cell-based, Human
Description: (§2) Human peripheral blood mononuclear cells from a minimum of 2 donors, that have been blasted with PHA and IL-2, were counted, viability determined by Trypan Blue dye exclusion and mixed in equal ratios. Pooled donors were used to minimize the variability observed between individual donors which results from quantitative and qualitative differences in HIV infection and overall response to the PHA and IL-2 of primary lymphocyte populations. The cells were resuspended at 1×10^6 cells/mL in RPMI 1640 without phenol red supplemented with 15% Fetal Bovine Serum (heat inactivated), 2 mM L-glutamine, 100 U/mL penicillin, 100 μg/mL streptomycin, 10 μg/Ln gentamycin and IL-2 (20 U/mL, R&D Systems, Minneapolis, Minn.). Fifty microliters of cells were then distributed to the inner 60 wells of a 96 well round bottom microtiter culture plate in a standard format developed by the Infectious Disease Research department of Southern Research Institute. Each plate contains cell control wells (cells only), virus control wells (cells plus virus), and experimental wells (drug plus cells plus virus). Alternatively, cells were cultured in T25 cm^2 or T75 cm^2 tissue culture flasks at a starting density of 1×10^6 cells per ml. Serially diluted compounds were added to the microtiter plate or tissue culture flask followed by the appropriate pre-titered strain of HIV-1. For virus replication inhibition experiments the HIV-1 strain RoJo was used. This is a low passage presumable subtype B pediatric isolate with a syncytium inducing (SI) phenotype in MT-2 cells isolated by Southern Research Institute personnel. All samples were assayed in triplicate where possible with an accompanying determination of compound toxicity. The final volume per well in the microtiter plates was 200 μL. The final volume in the tissue culture flask varied depending upon experimental design and flask size. Assays were incubated for 6 days in a humidified atmosphere at 37° C., 5% CO2, after which supernatants were collected, for analysis of RT activity and cell viability by MTS dye reduction. Culture were also examined microscopically, any abnormalities noted, and in the case of tissue culture flasks cell counts and viability determined by Trypan Blue Dye exclusion.
as §1

[3] = test system: HIV-1 strain RoJo; experiment: PBMC time-of-addition assay (RT in cell-free supernatant at 6 days); format: cell-based; conditions: for IC50: Human immunodeficiency virus 1, PBMC
Experimental: Peripheral blood monocular cells (PBMCs) were obtained from normal hepatitis and HIV-1 negative donors by ficoll hypaque gradient separation. The mononuclear cells were washed to remove residual separation media, counted, viability determined and resuspended in RPMI 1640 medium supplemented with 15 % FBS (heat inactivated), 2 mM L-glutamine, 100 U/mL penicillin, 100 μg/mL streptomycin, and 10 μg/mL gentamycin with 2 μg/mL phytohemagluttin (PHA) at 1×10^6 cells/mL. The cells were cultured for 48 to 72 h at 37° C., 5% CO2. Following incubation, cells were collected by centrifugation, washed and resuspended in RPMI 1640 supplemented with 15% FBS (heat inactivated), 2 mM L-glutamine, 100 U/mL penicillin, 100 μg/mL streptomycin, and 10 μg/mL gentamycin with 20 U/mL recombinant IL-2 (R & D Systems, Minneapolis, Minn.). IL-2 was included in the culture medium to maintain the cell division initiated by the PHA mitogenic stimulation, and promote optimal growing conditions for the PBMCs. The cultures were then maintained until use by ½ culture volume change with fresh IL-2 containing medium every 3 days.
as §2
Time-of-addition assays were performed with PBMCs in two ways. For both assays, PBMCs were isolated and cultured under the conditions as described above. Time-of-addition assays were carried out in either a tissue culture flask format (T-75 cm^2) or in microtiter wells. In both cases due to the lack of plastic adherence and heterogeneity of the PBMC population for susceptibility to infection, it was not possible to use complete removal of virus following a timed adsorption to synchronize the infection and limit the assay to a single round of infection. […]

CC(C)=CCCC1(C)CCc2c(O)cc(C(C)(C)CCCC(C)C)cc2O1 (stereo not shown) [IG-08, 3,4-Dihydro-2-methyl-2-(4-methyl-3-pentenyl)-7-(1,1,5-trimethylhexyl)-2H-1-benzopyran-5-ol]
% 7-AAD positive per cell cycle phase G0-G1 ([1]; 15 μM, HIV +): 98% | % 7-AAD positive per cell cycle phase G2-G1 ([1]; 15 μM, HIV +): 2% | % 7-AAD positive per cell cycle phase G2-M ([1]; 15 μM, HIV +): 0.08% | % of cells in cell cycle phase ([1]; 15 μM, HIV +): 2.4% | % 7-AAD positive per cell cycle phase G0-G1 ([1]; 15 μM, HIV −): 91% | % 7-AAD positive per cell cycle phase G2-G1 ([1]; 15 μM, HIV −): 2% | % 7-AAD positive per cell cycle phase G2-M ([1]; 15 μM, HIV −): 8.7% | % of cells in cell cycle phase ([1]; 15 μM, HIV −): 0% | % 7-AAD positive per cell cycle phase G0-G1 ([1]; 30 μM, HIV +): 99% | % 7-AAD positive per cell cycle phase G2-G1 ([1]; 30 μM, HIV +): 2% | % 7-AAD positive per cell cycle phase G2-M ([1]; 30 μM, HIV +): 0.15% | % of cells in cell cycle phase ([1]; 30 μM, HIV +): 0.9% | % 7-AAD positive per cell cycle phase G0-G1 ([1]; 30 μM, HIV −): 98% | % 7-AAD positive per cell cycle phase G2-G1 ([1]; 30 μM, HIV −): 2% | % 7-AAD positive per cell cycle phase G2-M ([1]; 30 μM, HIV −): 0.6% | % of cells in cell cycle phase ([1]; 30 μM, HIV −): 1% | % Viable Cells ([2]; 15 μM, HIV +): 94% | % Viable Cells ([2]; 15 μM, HIV −): 89% | % Viable Cells ([2]; 30 μM, HIV +): 67% | % Viable Cells ([2]; 30 μM, HIV −): 62% | decrease in IC50 ([3]; 4 h pretreatment): 4-fold decrease in | IC50 ([3]; 4 h, −4 h pre (relative to infection)): 6.2 µM | IC50 ([3]; 6 h, 6 h post infection): 22.5 µM | IC50 ([3]; at infection): 15.7 µM | IC50 ([3]; pre-treat 0 h prior to infection): 14.2 µM | IC50 ([3]; pre-treat 2 h prior to infection): 10.4 µM | IC50 ([3]; pre-treat 4 h prior to infection): 4.1 µM | IC50 ([3]; pre-treat 24 h prior to infection): 11.9 µM
